For assay [1], the system named is S. aureus ATCC 25923. In words: MIC by serial dilutions in broth (visible growth). Type of assay: cell-based.
Protocol: (§4) The minimum inhibitory concentration (MIC) and minimum bactericidal concentration (MBC) of the antibacterial composition enriched for the light isotope zinc ^64Zne was evaluated in the experiment. […] S. aureus ATCC 25923, E. coli ATCC 25922 and P. aeruginosa ATCC 27853 were used as test cultures.
(§5) The studies were carried out using the method of serial dilutions in broth. To determine sensitivity of microorganisms to the antibacterial composition, 0.5 ml of broth was placed into each tube. The number of tubes was determined based on the desired number of dilutions and was increased by one for the “negative” control (no test composition). Series of two-fold serial dilutions of the test variants of the antibacterial composition were used and concentrations ranging from 450 mcg ^64Zne/ml to 0.000107 mcg ^64Zne/ml were obtained.
(§6) Reference test strains of S. aureus ATCC 25923, E. coli ATCC 25922 and P. aeruginosa ATCC 27853 were incubated in Mueller-Hinton liquid broth at 37° C. for 24 hours. Standard bacterial suspension equivalent to 0.5 McFarland standard diluted 100-fold with the broth was used for the inoculation of the tubes after which the concentration of microorganism in it was approximately 10^6 CFU/ml.
(§7) 0.5 ml of inoculum was added to each tube containing 0.5 ml of the appropriate dilution of a solution of the ^64Zn-enriched salt of interest. […] The final concentration of the microorganism in each tube was approximately 5×10^5 CFU/ml.
(§8) The tubes were incubated at 35° C. in air for 16-20 or 20-24 hours (depending on the bacterial strain).
(§9) To determine the presence of microorganism growth the test tubes with inoculum were viewed under transmitted light. Transmitted light was measured by spectrophotometry. The growth of culture in the presence of antibacterial compositions based on ^64Zne was compared with the reference test tube (“negative” control), containing the original inoculum and stored in the refrigerator. The MIC was determined as the lowest concentration of ^64Zne that inhibits visible growth of the microorganism. Both gram-positive (S. aureus) and gram-negative bacteria (P. aeruginosa, E. coli) were used in the experiments described below.
(§10) That is, ^64Zne in the form of a salt was compared with a composition that contains zinc with a natural distribution of isotopes. […] Relevant samples containing salt of natural zinc with EDDA and natural zinc sulfate were used for the comparison.
(§11) The following commercial antibacterial medications were used for the study: azithromycin and ceftriaxone and norfloxacin. The initial concentration of 3000 mcg/ml was used for the samples of all the above compounds. […] Serial dilutions of the above antibacterial compounds were also prepared in the same way as for the antibacterial composition of the invention. The same pathogenic strains of S. aureus ATCC 25923, E. coli ATCC 25922, P. aeruginosa ATCC 27853 were used for the study.
For assay [2], the system named is E. coli ATCC 25922. The assay can be described thus: MIC by serial dilutions in broth (visible growth). Type of assay: cell-based.
For assay [3], the system named is E. coli ATCC 25922. In words: MBC by plating tube contents on Mueller-Hinton medium. Type of assay: cell-based. The procedure:
(§1) To evaluate the bactericidal action of the antibacterial composition based on light isotope ^64Zne the minimum bactericidal concentration (MBC) was determined by plating out 0.1 ml of the contents of each tube containing the antibacterial composition on Mueller-Hinton medium. The incubation was at 37° C. for 24 h.
(§2) The MBC of the test samples was determined as the lowest concentration at which there was no growth on Mueller-Hinton agar medium.

The subject of assay [4] is P. aeruginosa ATCC 27853. Described as above. It is filed as cell-based. The protocol: as §1, §2
Assay [5] relates to S. aureus ATCC 25923. Described as above. Type of assay: cell-based. The procedure:
as §1, §2

The subject of assay [6] is P. aeruginosa ATCC 27853. In words: MIC by serial dilutions in broth (visible growth).
Protocol: as §4, §5, §6, §7, §8, §9, §10, §11
In assay [7] the test system is E. coli ATCC 25922. The assay can be described thus: MIC of deuterium-depleted water by serial dilutions in normal saline solution. It is filed as cell-based. The note with it: basic solution, 10^4, 10^6, 10^8 cells/ml. The procedure: (§3) The minimum inhibitory concentration (MIC) of deuterium-depleted water was determined by serial dilutions in normal saline solution. Reference strains of E. coli ATCC 25922 and P. aeruginosa ATCC 27859 were used as test cultures. For inoculation, microbial suspension equivalent to a 0.5 standard McFarland (1.5×10^8 cells/ml) was used. Then the dilutions with normal saline solution were prepared so that the concentration of microorganisms reached approximately 10^4 cells/ml. The test cultures were previously grown for 24 hours at 37° C. One-tenth of a milliliter (0.1 ml) of the suspension was placed into each test tube containing 4 ml of the medium with the investigative active substance at a certain concentration (without deuterium-depleted water in the control). The tubes were incubated in an incubator at 37° C. for 24 hours. After incubation the inoculum from each tube was plated on Mueller-Hinton agar medium for P. aeruginosa and on Endo for E. coli and incubated at 37° C. for another 24 hours. The results were evaluated based on the presence of bacterial growth (turbidity) in the nutrient broth and, if necessary, by using other additional known bacteriological tests. The first few tubes remained transparent due to the antimicrobial effect of the study substance. […] The results are shown in the table below and illustrated in FIGS. 5b and 5c.

The subject of assay [8] is P. aeruginosa ATCC 27859. Described as above. The note with it: basic solution, 10^4, 10^6, 10^8 cells/ml; text names ATCC 27853. It is filed as cell-based. The procedure: as §3
The mark [9] stands for this setting: Staphylococcus aureus, ATCC25923, Table 9, commercial antibacterial agents, read-out: MIC.
Where [10] appears, read: Escherichia coli, ATCC25922, Table 9, commercial antibacterial agents, read-out: MIC.
Setting [11] is: Escherichia coli, ATCC25922, Table 10, commercial antibacterial agents, read-out: MBC.
[12] abbreviates: Pseudomonas aeruginosa, ATCC27853, Table 10, commercial antibacterial agents, read-out: MBC.
[13] abbreviates: Staphylococcus aureus, ATCC25923, Table 10, commercial antibacterial agents, read-out: MBC.
The mark [14] stands for this setting: Pseudomonas aeruginosa, ATCC27853.
Where [15] appears, read: Table 7, ^64Zne vs natural zinc.
Where [16] appears, read: concentration of ^64Zne, Tables 1-5.
Where [17] appears, read: Table 8, ^64Zne vs natural zinc.

Converted amounts (≈) assume the structure as drawn. Where two headings read alike, the source gives them in different places. Marks after values point to notes of the source that are not given here.

With `CC[C@H]1OC(=O)[C@H](C)[C@@H](O[C@H]2C[C@@](C)(OC)[C@@H](O)[C@H](C)O2)[C@H](C)[C@@H](O[C@@H]2O[C@H](C)C[C@H](N(C)C)[C@H]2O)[C@](C)(O)C[C@@H](C)CN(C)[C@H](C)[C@@H](O)[C@]1(C)O` [azithromycin, reference compound], the MIC in assay [1] (setting [9]) was found to be 188 µg/mL (≈ 250 µM); in assay [2] (setting [10]), 1500 µg/mL (≈ 2000 µM); in assay [6] (setting [14]) it was 1500 µg/mL (≈ 2000 µM). The MBC in assay [3] (setting [11]), in assay [4] (setting [12]) and in assay [5] (setting [13]) was less than 1500 µg/mL throughout.
On to `CO/N=C(\C(=O)N[C@@H]1C(=O)N2C(C(=O)O)=C(CSc3nc(=O)c(=O)[nH]n3C)CS[C@H]12)c1csc(N)n1` [ceftriaxone, reference compound], for which the results for the MIC in assay [1] (setting [9]), in assay [2] (setting [10]) and in assay [6] (setting [14]) were 11.7 µg/mL (≈ 21.1 µM), 2.93 µg/mL (≈ 5.28 µM) and 750 µg/mL (≈ 1350 µM), respectively. The results for the MBC in assay [3] (setting [11]), in assay [4] (setting [12]) and in assay [5] (setting [13]) were 11.7 µg/mL (≈ 21.1 µM), less than 1500 µg/mL and 375 µg/mL (≈ 676 µM), respectively.
As to `O` [deuterium-depleted water], the “bactericidal effect (in words)” value in assay [7] and in assay [8] was “bactericidal effect” each time.
For `O=S(=O)([O-])[O-].[64Zn+2]` [^64Zne sulfate], the visible growth entry in assay [1] is “− and +”; in assay [1] (^64Zne 0.00036 mcg/ml), “+”; in assay [1] (^64Zne 0.00072 mcg/ml), “+”; in assay [1] (^64Zne 0.0014 mcg/ml), “+”; in assay [1] (^64Zne 0.0029 mcg/ml) it was “+”; in assay [1] (^64Zne 0.011 mcg/ml), “+”. Further, the visible growth entry in assay [1] (^64Zne 0.023 mcg/ml) is on record as “+”; in assay [1] (^64Zne 0.046 mcg/ml), “+”; in assay [1] (^64Zne 0.37 mcg/ml), “−”; in assay [1] (^64Zne 1.46 mcg/ml), “−”; in assay [1] (^64Zne 2.93 mcg/ml) it was “−”; in assay [1] (^64Zne 5.86 mcg/ml) it was “−”. Further, the visible growth result in assay [1] (^64Zne 11.72 mcg/ml), in assay [1] (^64Zne 23.44 mcg/ml), in assay [1] (^64Zne 46.88 mcg/ml), in assay [1] (^64Zne 93.75 mcg/ml), in assay [1] (^64Zne 187.5 mcg/ml) and in assay [1] (^64Zne 375 mcg/ml) was “−” throughout. Also, the visible growth entry in assay [1] (^64Zne 750 mcg/ml) was “−”; in assay [2], “− and +”; in assay [2] (^64Zne 0.00036 mcg/ml) it was “+”; in assay [2] (^64Zne 0.00072 mcg/ml) it was “+”; in assay [2] (^64Zne 0.0014 mcg/ml) it was “+”; in assay [2] (^64Zne 0.0029 mcg/ml) it was “+”. Besides, the visible growth entry in assay [2] (^64Zne 0.011 mcg/ml) is “+”; in assay [2] (^64Zne 0.023 mcg/ml) it was “+”; in assay [2] (^64Zne 0.046 mcg/ml), “+”; in assay [2] (^64Zne 0.092 mcg/ml) it was “−”; in assay [2] (^64Zne 0.37 mcg/ml) it was “−”; in assay [2] (^64Zne 0.73 mcg/ml) it was “−”. The visible growth entry in assay [2] (^64Zne 1.46 mcg/ml), in assay [2] (^64Zne 2.93 mcg/ml), in assay [2] (^64Zne 5.86 mcg/ml), in assay [2] (^64Zne 11.72 mcg/ml), in assay [2] (^64Zne 23.44 mcg/ml) and in assay [2] (^64Zne 46.88 mcg/ml) was “−” each time. Further, the visible growth entry in assay [2] (^64Zne 93.75 mcg/ml), in assay [2] (^64Zne 187.5 mcg/ml), in assay [2] (^64Zne 375 mcg/ml), in assay [2] (^64Zne 750 mcg/ml) and in assay [2] (^64Zne 1500 mcg/ml) was “−” in each case. The MIC in assay [1] (setting [15]) was determined as 0.366 zinc/ml; in assay [1] (setting [16]) it was 0.366 µg/mL; in assay [2] (setting [15]) it was 0.0916 zinc/ml; in assay [2] (setting [16]), 0.0916 µg/mL; in assay [6] (setting [15]) it was 46.875 zinc/ml; in assay [6] (setting [16]), 46.875 µg/mL. For the same compound, the MBC in assay [3] (Table 6) was 1.46* mcg ^64Zne/ml; in assay [3] (setting [17]), 1.4648 mcg zinc/ml; in assay [4] (Table 6), 375 mcg ^64Zne/ml; in assay [4] (setting [17]), 375 mcg zinc/ml; in assay [5] (Table 6) it was 0.37* mcg ^64Zne/ml; in assay [5] (setting [17]), 0.3662 mcg zinc/ml. Further, in assay [4], the “bactericidal activity (in words)” value is on record as “satisfactory bactericidal activity”.

The record behind these values is patent US12097215B2, “Antibacterial composition and its use in treating bacterial infections” (Vector Vitale IP LLC, priority 2017, dated 2024).
